According to patent US12440495B2, “Combination therapy for treatment of myeloproliferative neoplasms” (Incyte Corporation, priority 2020, dated 2025):
Where two headings read alike, the source gives them in different places.

Experiment: Treatment-emergent adverse events and exposure-safety analysis, Compound 1 monotherapy
Assay type: in vivo, human
Conditions: for predicted probability of hyperglycemia incidence: from AUC-hyperglycemia relationship; for AUC: human, plasma, oral
Method: The selected clinical safety endpoints as deemed appropriate (eg, frequently occurring TEAEs (treatment-emergent adverse events), incident rate >20% for all AEs (adverse events) and clinically notable adverse events) were used to evaluate exposure-safety relationships. The safety data from a total of […] participants (including both solid tumors and hematologic malignancies) receiving monotherapy treatment of Compound 1 (n=10 at 8 mg, n=89 at 12 mg, and n=8 at 16 mg) in Parts 1 and 2 were used for analysis.
No statistically significant correlation was identified for steady-state Compound 1 AUC and any TEAEs or clinically notable AEs evaluated in this analysis, except hyperglycemia (p-value<0.05). […] Lack of correlation between Compound 1 AUCss.0-24 and TEAEs could be due to the narrow dose range (8, 12, or 16 mg) explored in this study and small sample sizes in the 8-mg and 16-mg groups of the study (the majority of participants received 12 mg).

[1] = monotherapy 8, 12 or 16 mg, all grades and causality

Structure (SMILES): CN1C(=O)C(C)(C)Oc2c(-c3cn(C)c(=O)c4[nH]ccc34)cc(S(C)(=O)=O)cc21 [Compound 1, 2,2,4-trimethyl-8-(6-methyl-7-oxo-6,7-dihydro-1H-pyrrolo[2,3-c]pyridin-4-yl)-6-(methylsulfonyl)-2H-1,4-benzoxazin-3(4H)-one]
- predicted probability of hyperglycemia incidence (2 mg): 8.0%
- predicted probability of hyperglycemia incidence (4 mg): 9.2%
- AUCss,0-24, fourth quartile (FIG. 8, monotherapy 8-16 mg QD): 3.61 µM·h
- AUCss,0-24, second quartile (FIG. 8, monotherapy 8-16 mg QD): 2070 nM·h
- AUCss,0-24, third quartile (FIG. 8, monotherapy 8-16 mg QD): 2620 nM·h
- AUC (12 mg, participant 1011, Grade 4 gastrointestinal hemorrhage, 12 mg QD, read-out: AUCss,0-24 of individual participant): 3.47 µM·h
- AUC (12 mg, participant 9002, Grade 4 gastrointestinal hemorrhage, 12 mg QD, read-out: AUCss,0-24 of individual participant): 3.61 µM·h
- AUC (12 mg, participant 12005, Grade 3 INR increased, 12 mg QD, concomitant warfarin, read-out: AUCss,0-24 of individual participant): 6.99 µM·h
- AUC (16 mg, participant 16001, Grade 3 INR increased, 16 mg QD, concomitant warfarin, read-out: AUCss,0-24 of individual participant): 9.77 µM·h
- AUC (FIG. 8, monotherapy 8-16 mg QD, read-out: AUCss,0-24, first quartile): 0.893 to 2.04 µM·h
- clinically notable AE incidence: INR increased (monotherapy 8, 12 or 16 mg): 8.5%
- clinically notable AE incidence: epistaxis (monotherapy 8, 12 or 16 mg): 9.9%
- clinically notable AE incidence: gastrointestinal hemorrhage (monotherapy 8, 12 or 16 mg): 1.9%
- clinically notable AE incidence: hyperglycemia (monotherapy 8, 12 or 16 mg): 17.4%
- TEAE incidence: anemia [1]: 27.3%
- TEAE incidence: constipation [1]: 20.7%
- TEAE incidence: decreased appetite [1]: 35.5%
- TEAE incidence: diarrhea [1]: 27.3%
- TEAE incidence: dysgeusia [1]: 19.8%
- TEAE incidence: fatigue [1]: 45.5%
- TEAE incidence: nausea [1]: 47.9%
- TEAE incidence: thrombocytopenia [1]: 28.9%
- TEAE incidence: vomiting [1]: 28.1%
- AUCss,0-24 of individual participant (participant 9002, Grade 4 gastrointestinal hemorrhage, 12 mg QD): 2.15 µM·h
- AUCss,0-24 of individual participant (participant 16001, Grade 3 INR increased, 16 mg QD, concomitant warfarin): 9.79 µM·h
